Assay: Thioflavin T-test (ThT) of physical stability (fibril formation) of pharmaceutical formulations after storage at 37° C.
Type: physicochemical
Conditions: for Fluorescence units after storage at 37° C., T = 0 week / Fluorescence units after storage at 37° C., T = 1 month / Fluorescence units after storage at 37° C., T = 1 week: pH of pharmaceutical formulation 7.4
Experimental: Before freeze drying the solution or suspension of the peptide it has been adjusted to the aimed pH. After freeze drying pharmaceutical formulations were prepared according to General procedure 1 and 2.
Preservative, isotonic agent and buffer were dissolved in water and pH adjusted to 7.4. Hereafter the freeze dried peptide was dissolved while stirring slowly. The pH was adjusted to 7.4 using Sodium Hydroxide and/or Hydrochloric Acid. Finally, the formulation was filtered through a 0.22 μm filter.
(§1) Preservative, isotonic agent and buffer were dissolved in water and pH adjusted to 7.4. The peptide was dissolved in water while stirring slowly. The two solutions were mixed and pH adjusted to 7.4 using Sodium Hydroxide and/or Hydrochloric acid. Finally, the formulation was filtered through a 0.22 μm filter.
as §1, with “7.4 or lower. Compound 1” for “7.4. The peptide”, “slowly and pH is adjusted to 11.5 by the addition of Sodium Hydroxide. After approx. 5 min the” for “slowly. The”
Physical stability of the formulations is evaluated by means of the Thioflavin T-test. The physical stability of the different formulations is characterized by their tendency to form fibrils. A method to determine the presence of fibrils is the Thioflavin T-test. The histological thiazole dye Thioflavin T (ThT) is used as an indicator of amyloid fibril formation. The method is based on the fluorescent characteristics of ThT. […] The physical stability of the formulations is evaluated by the ThT-test after storage of the formulation is top filled glass cartridges for various time periods.

[1] = pH of Compound 1 before freeze drying 8.0, 3 mg/ml
[2] = pH of Compound 1 before freeze drying 9.5, 3 mg/ml
[3] = pH of Compound 1 before freeze drying 9.5, 6.25 mg/ml
[4] = pH of Compound 1 before freeze drying 11.5, 3 mg/ml
[5] = pH of Compound 1 before freeze drying 11.5, 6.25 mg/ml
[6] = pH of solution containing the drug substance 8.0, 6.25 mg/ml
[7] = pH of solution containing the drug substance 11.5, 6.25 mg/ml

Physical stability (change in ThT) after 1 week and 1 months storage at 37° C. (Compound 1 adjusted to pH 8.0 before freeze drying): an increase in ThT is seen
Physical stability (change in ThT) after 1 week and 1 months storage at 37° C. (Compound 1 adjusted to pH 9.5 before freeze drying): no increase in ThT is seen
Physical stability (change in ThT) after 1 week and 1 months storage at 37° C. (Compound 1 adjusted to pH 11.5 before freeze drying): no increase in ThT is seen
Fluorescence units after storage at 37° C., T = 0 week [1]: 6 fluorescence units
Fluorescence units after storage at 37° C., T = 1 month [1]: 28 fluorescence units
Fluorescence units after storage at 37° C., T = 1 month (pH of Compound 1 before freeze drying 8.0, 6.25 mg/ml): 37 fluorescence units
Fluorescence units after storage at 37° C., T = 0 week [2]: 6 fluorescence units
Fluorescence units after storage at 37° C., T = 1 month [2]: 7 fluorescence units
Fluorescence units after storage at 37° C., T = 1 month [3]: 13 fluorescence units
Fluorescence units after storage at 37° C., T = 1 week [3]: 13 fluorescence units
Fluorescence units after storage at 37° C., T = 0 week [4]: 6 fluorescence units
Fluorescence units after storage at 37° C., T = 1 month [4]: 7 fluorescence units
Fluorescence units after storage at 37° C., T = 0 week [5]: 14 fluorescence units
Fluorescence units after storage at 37° C., T = 1 month [5]: 14 fluorescence units
Fluorescence units after storage at 37° C., T = 1 week [5]: 13 fluorescence units
Fluorescence units after storage at 37° C., T = 0 week [6]: 14 fluorescence units
Fluorescence units after storage at 37° C., T = 1 month [6]: 41 fluorescence units
Fluorescence units after storage at 37° C., T = 1 week [6]: 20 fluorescence units
Fluorescence units after storage at 37° C., T = 0 week [7]: 13 fluorescence units
Fluorescence units after storage at 37° C., T = 1 month [7]: 13 fluorescence units
Fluorescence units after storage at 37° C., T = 1 week [7]: 12 fluorescence units
Physical stability (change in ThT) after 1 month at 37° C. (pH raised above neutral pH (>8) in the solution containing the drug substance): no increase in ThT is seen
Substance: Arg^34, Lys^26 (N^ε-(γ-Glu(N^α-hexadecanoyl)))GLP-1(7-37) [Compound 1]

From patent US8614181B2, “Stabilized pharmaceutical peptide compositions” (Novo Nordisk A/S, priority 2003, dated 2013)
